Experimental data as given in patent US8933096B2, “Antimicrobial agents” (Rugers, The State University of New Jersey, priority 2010, dated 2015).

Legend:
[1] = tested on: methicillin-Sensitive Staphylococcus aureus (MSSA); assay: Test C: planktonic antibacterial broth microdilution assay (MIC) vs MSSA; format: cell-based; settings: 37° C., growth read after 24 to 48 hours at OD 600 nm
Experimental: (§1) Test C. Planktonic (Free-Living) Antibacterial Assay.
(§2) Planktonic antibacterial activity can be determined using a broth microdilution assay in which log-phase bacteria are grown at 37° C. in appropriate medium containing two-fold serial dilutions of a compound to yield a final concentration ranging from 256 to 0.1 μg/ml. For determination of minimal inhibitory concentration (MIC) values, bacterial growth is monitored after 24 to 48 hours by measuring optical density at 600 nm.

[2] = tested on: MRSA; assay: Test C: planktonic antibacterial broth microdilution assay (MIC) vs MRSA; format: cell-based; settings: Staphylococcus aureus, 37° C., growth read after 24 to 48 hours at OD 600 nm
Experimental: as §1, §2

[3] = biological target: T1, S. aureus FtsZ GTPase (Staphylococcus aureus, UniProt P0A031); assay: Test B: FtsZ GTPase inhibition, colorimetric malachite green assay; format: biochemical; settings: 1 mM GTP, 20 mM CaCl2, 2 μM FtsZ, 60 minutes at room temperature, read-out: IC50 (compound concentration at which FtsZ GTPase activity is inhibited by 50%)
T1 sequence (P0A031 1-390): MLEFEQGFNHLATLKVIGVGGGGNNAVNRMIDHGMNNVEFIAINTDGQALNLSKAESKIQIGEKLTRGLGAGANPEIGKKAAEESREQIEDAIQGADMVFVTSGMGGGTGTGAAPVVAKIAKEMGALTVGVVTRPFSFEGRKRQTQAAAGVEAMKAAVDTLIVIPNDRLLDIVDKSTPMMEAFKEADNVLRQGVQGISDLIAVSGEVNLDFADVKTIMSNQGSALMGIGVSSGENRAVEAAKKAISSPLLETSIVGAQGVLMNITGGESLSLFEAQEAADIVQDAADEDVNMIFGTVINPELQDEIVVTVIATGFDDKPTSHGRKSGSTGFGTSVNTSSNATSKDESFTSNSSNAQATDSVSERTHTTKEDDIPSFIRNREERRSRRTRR
Description: Test B. Determining the FtsZ GTPase Inhibitory Activities of Compounds of the Invention.
Compound-induced inhibition of the FtsZ GTPase activity can be tested using a colorimetric assay in which the inorganic phosphate (Pi) released upon FtsZ-catalyzed hydrolysis of GTP reacts with malachite green and molybdate under acidic conditions to form a ternary complex that absorbs light at 650 nm, thus enabling quantitation of Pi levels by recording the absorbance at 650 nm (A650). All reactions are conducted in triplicate in 96-well microtiter plates. Differing concentrations (ranging from 0 to 1.5 mM) of compound are combined with 1 mM GTP and 20 mM CaCl2, the latter being used because FtsZ GTPase activity requires the presence of Ca2+ ions. The reactions will be initiated by addition of 2 μM FtsZ and allowed to incubate for 60 minutes at room temperature. Following incubation, the reactions will be stopped by adding 80 μl of an acidic malachite green-molybdate solution containing 0.3 mg/ml malachite green oxalate, 2 mg/ml sodium molybdate, 0.5 mg/ml Triton X-100, and 0.7 N HCl. […] Ten minutes following addition of the acidic malachite green-molybdate solution, the A650 value for each reaction are recorded using a microtiter plate reader. […] This standard curve is then fit by linear regression analysis to yield the quantitative relationship between A650 and Pi concentration. […]

| Compound | MIC [1] [µg/mL] | MIC [2] [µg/mL] | IC50 [3] [µM] |
| --- | --- | --- | --- |
| COc1cc2cc(-c3cc(-c4ccccc4)cc(-c4ccccc4)c3)nc(N=C(N)N)c2cc1OC [Example 3] | ≤ 32 | – | – |
| COc1cc2cc(-c3cccc(-c4ccccc4)c3)[n+](C)c(N(C)C)c2cc1OC.[I-] [Example 5] | ≤ 8 | – | – |
| COc1cc2cc(-c3cccc(-c4ccccc4)c3)nc(N=C(N)N)c2cc1OC [Example 7] | ≤ 8 | – | – |
| COc1cc2cc(-c3cccc(-c4ccccc4)c3)nc(NCCN)c2cc1OC [Example 9] | ≤ 8 | – | – |
| COc1cc2cc(-c3cccc(C(C)(C)C)c3)nc(CN=C(N)N)c2cc1OC [Example 13] | ≤ 8 | ≤ 8 | – |
| COc1cc(-c2cc3cc(OC)c(OC)c(OC)c3c(C)[n+]2C)cc(-c2cccc(-c3ccc(F)cc3)c2)c1OC.[I-] [Example 15] | ≤ 8 | ≤ 8 | – |
| COc1cc(-c2cc3cc(OC)c(OC)c(OC)c3c(C)[n+]2C)cc(-c2cc(-c3ccc(F)cc3)cc(-c3ccc(F)cc3)c2)c1OC.[I-] [Example 19] | ≤ 8 | ≤ 8 | < 100 |
| COc1cc(-c2cc3ccccc3c[n+]2C)cc(-c2cccc(-c3ccc(F)cc3)c2)c1OC.[I-] [Example 22] | ≤ 8 | – | < 100 |
| COc1cc2cc(-c3cccc(C(C)(C)C)c3)nc(C/N=C(/C)N)c2cc1OC [Example 23] | ≤ 8 | – | – |
